Measurements as given in PubChem BioAssay (NCI).
Where “and” joins values, the source holds several entries; their conditions need not be identical. Equal entries are not always repeated.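 Exposure lasted 48 hours, with cells grown in 96-well plates and compounds tested at five concentrations. GI50 = concentration required for 50% inhibition of growth. TGI marks complete inhibition of growth.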

Assays:
Experiment in all cases: NCI tumour cell line growth inhibition, 48 h
[1] = system: CAKI-1 renal
[2] = system: HS 578T breast
[3] = system: IGROV1 ovarian
[4] = system: MDA-MB-231 breast
[5] = system: NCI-H23 lung
[6] = system: OVCAR-5 ovarian
[7] = system: T-47D breast
[8] = system: UACC-257 melanoma
[9] = system: UO-31 renal
[10] = system: SR leukemia

SMILES	GI50 [1] [µM]	TGI [1] [µM]	GI50 [2] [µM]	TGI [2]	GI50 [3]	TGI [3] [µM]	GI50 [4]	TGI [4]	GI50 [5]	TGI [5]	GI50 [6]	TGI [6]	GI50 [7]	TGI [7]	GI50 [8]	TGI [8]	GI50 [9]	TGI [9] [µM]	TGI [10]	GI50 [10]
Cc1ccc(Nc2[nH]c(C(=O)c3ccc(Cl)cc3)c(N)c2C(=S)Nc2ccccc2)nc1	25.3	76.4	21.8	76.2 µM	31.3 µM	> 100	21.4 µM	64.7 µM	35.1 µM	> 100 µM	33.1 µM	> 100 µM	29.8 µM	> 100 µM	33.3 µM	> 100 µM	24.3 µM	86.1	–	–
O=C(c1ccco1)c1ccccc1C(=O)c1ccco1	–	> 100	–	–	–	> 100	–	–	–	> 100 µM	–	> 100 µM	–	–	–	> 100 µM	–	> 100	> 100 µM	–
CSc1c(S(C)=O)[nH]c2cc(Br)cc(Br)c12 (stereo not drawn)	–	74.3	–	–	–	> 100	–	–	–	50.4 µM	–	–	–	–	–	> 100 µM	–	48.7	–	–
COc1nc2c(cc1S(=O)(=O)c1ccccc1)CCc1c-2cnn1Cc1ccccc1	5.02	> 100	13.3	> 100 µM	31.5 µM	> 100	> 100 µM	> 100 µM	8.45 µM	> 100 µM	> 100 µM	> 100 µM	3.09 µM	79.5 µM	59.7 µM	> 100 µM	4.3 µM	> 100	–	–
CC(C)(C)OC(=O)N1CC(Cn2cc(C(F)(F)F)c3c(Cl)ncnc32)C1	–	–	2.36	6.55 µM	1.86 µM	3.92	6.92 µM	23.4 µM	1.84 µM	3.58 µM	20.5 µM	57.5 µM	5.51 µM	27.1 µM	2.2 µM	5.43 µM	2.71 µM	10.8	> 100 µM	0.726 µM
COc1cc(-c2nc(-c3nnc(-c4ccc(F)c(Cl)c4)o3)c3ccccn23)cc(OC)c1OC	5.46	> 100	2.51	29.2 µM	3.61 µM	> 100	2.15 µM	14.7 µM	4 µM	> 100 µM	4.57 µM	> 100 µM	–	–	–	–	2.2 µM	7.64	–	–
C=CC[N+]1(CCO)CCN=C1CCCCCCCCCCCCC (stereo not drawn)	1.65	3.15	1.58	3.76 µM	0.288 µM	1.25	1.61 µM	3.1 µM	1.5 µM	2.82 µM	–	–	1.65 µM	3.47 µM	1.76 µM	3.27 µM	1.18 µM	2.57	–	–
CN(C)CCNC(=O)c1cccc2ccc(-c3cccnc3)nc12	–	32.9	–	–	–	25.6	–	–	–	16.1 µM	–	22.4 µM	–	–	–	15 µM	–	9.71	–	–
Cc1cc2c(=O)cc(-c3ccc(C(F)(F)F)cc3)oc2c(C(=O)O)c1C	–	> 100	–	–	–	> 100	–	–	–	> 100 µM	–	> 100 µM	–	–	–	> 100 µM	–	> 100	–	–
COc1cc[c]([Sb]([Br])([CH]=C(C)C)([CH]=C(C)C)[CH]=C(C)C)cc1	30.7	> 100	–	–	3.06 µM	66.1	–	–	4.72 µM	34.6 µM	–	–	–	–	3.45 µM	> 100 µM	29.5 µM	73.1	> 100 µM	4.28 µM
CCOC(=O)C1(Br)C(c2ccccc2)NC(=O)N(C2OC(COC(=O)c3ccccc3)C(OC(=O)c3ccccc3)C2OC(=O)c2ccccc2)C1(C)Br (stereo not drawn)	–	> 100	–	–	–	> 100	–	–	–	> 100 µM	–	–	–	–	–	52.4 µM	–	> 94.8	–	–
CCOC(=O)C12CCSC1C1(C#N)C(C#N)=CC2(N=P(c2ccccc2)(c2ccccc2)c2ccccc2)n2c(=O)n(-c3ccccc3)c(=O)n21 (stereo not drawn)	–	> 100	–	–	–	> 100	–	–	–	> 100 µM	–	> 100 µM	–	–	–	94.3 µM	–	77.2	–	–
COc1ccc(C(=O)Nc2ccc(S(=O)(=O)NCC(=O)O)cc2)cc1	–	> 100	–	–	–	> 100	–	–	–	> 100 µM	–	> 100 µM	–	–	–	> 100 µM	–	> 100	–	–
Cc1ccc(/C=N/NS(=O)(=O)c2ccccc2)cc1	–	> 100	–	–	–	> 100	–	–	–	> 100 µM	–	> 100 µM	–	–	–	> 100 µM	–	> 100	> 100 µM	–
CNS(=O)(=O)c1ccccc1C(=N)c1ccccc1	–	> 100	–	> 100 µM	–	> 100	–	> 100 µM	–	> 100 µM	–	> 100 µM	–	> 100 µM	–	–	–	> 100	> 100 µM	–
C/C(=C1/N=C(c2ccccc2)OC1=O)c1ccc(C)cc1	–	> 100	–	> 100 µM	–	> 100	–	> 100 µM	–	> 100 µM	–	> 100 µM	–	> 100 µM	–	> 100 µM	–	–	> 100 µM	–
N.N.N.N.N.N#N.[Cl-].[Os+7]	> 100	> 100	–	–	> 100 µM	> 100	–	–	> 100 µM	> 100 µM	> 100 µM	> 100 µM	–	–	–	–	> 100 µM	> 100	> 100 µM	> 100 µM
C[C@@H]1[C@H]2[C@H](C=C3[C@@H]4CC[C@H]5Cc6nc7c(nc6C[C@]5(C)[C@H]4C[C@@H](O)[C@@]32C)C[C@@H]2CC[C@H]3C4=C[C@@H]5O[C@@]6(CC[C@](C)(CO)O6)[C@@H](C)[C@@]5(O)[C@@]4(C)[C@H](O)C[C@@H]3[C@@]2(C)C7)O[C@]12CCC(C)(C)O2	–	–	0.165	0.89 µM	2.16 µM	62.8	0.469 µM	2.62 µM	1.61 µM	23.1 µM	1.22 µM	19.6 µM	0.405 µM	> 41.8 µM	13.9 µM	99.2 µM	0.275 µM	1.54	2.9 µM	0.322 µM
NCCn1ccc(NC(c2ccccc2)(c2ccccc2)c2ccccc2)nc1=O	–	–	–	–	–	> 100	–	–	–	–	–	> 100 µM	–	–	–	36.2 µM	–	> 100	46.2 µM	–
O=C(c1ccccn1)c1nc(-c2ccc(Cl)c(Cl)c2)nc2ccc(Cl)cc12	–	> 100	–	–	–	> 100	–	–	–	87.5 µM	–	> 100 µM	–	–	–	> 100 µM	–	> 100	–	–

SMILES	GI50 [1] [µM]	TGI [1] [µM]	GI50 [2] [µM]	TGI [2]	GI50 [3]	TGI [3] [µM]	GI50 [4]	TGI [4]	GI50 [5]	TGI [5]	GI50 [6]	TGI [6]	GI50 [7]	TGI [7]	GI50 [8]	TGI [8]	GI50 [9]	TGI [9] [µM]	TGI [10]	GI50 [10]
C=CC(=O)NCCOc1cccc(Nc2cc(NCCCNC(=O)C3CCC3)c(Br)cn2)c1	0.434	1.75	0.567	1.7 µM	0.963 µM	12.9	0.478 µM	1.48 µM	1.07 µM	7.16 µM	1.84 µM	10.5 µM	4.49 µM	22.7 µM	3.34 µM	> 25 µM	0.372 µM	1.11	–	–
CC1(C(=O)NCCN(CCNC(=O)C2(C)CC3(C)CC(C)(C2)C(=O)NC3=O)CCNC(=O)C2(C)CC3(C)CC(C)(C2)C(=O)NC3=O)CC2(C)CC(C)(C1)C(=O)NC2=O (stereo not drawn)	–	> 100	–	–	–	> 100	–	–	–	> 100 µM	–	–	–	–	–	> 100 µM	–	> 100	> 100 µM	–
O=C(N[C@@H]1C=CCC[C@@H]1c1ccccc1)OCc1ccccc1	–	45.1	–	–	–	68.9	–	–	–	51.3 µM	–	54.4 µM	–	–	–	35.2 µM	–	36.7	41.7 µM	–
Cc1cccc(Cl)c1NC(N)=S	–	> 100	–	–	–	> 100	–	–	–	> 100 µM	–	> 100 µM	–	–	–	> 100 µM	–	> 100	–	–
O=c1c2cc(Br)ccc2nc(-c2ccccc2)n1NCC1(O)OCC(O)C(O)C1O (stereo not drawn)	–	> 100	–	–	–	–	–	–	–	> 100 µM	–	> 100 µM	–	–	–	> 100 µM	–	> 100	> 100 µM	–
CN(C)c1ccc(/C=C/c2ccnc3ccc4ccccc4c23)cc1	–	> 100	–	> 100 µM	–	45.8	–	> 100 µM	–	> 100 µM	–	–	–	> 100 µM	–	> 100 µM	–	> 100	> 100 µM	–
CCCCCCCCCCCCOC1C(CNCC2OC3OC(C)(C)OC3C2NC(=O)Nc2ccc(C(F)(F)F)cc2)OC2OC(C)(C)OC21 (stereo not drawn)	7.41	15.1	5.39	14.1 µM	6.77 µM	15.6	2.94 µM	7.37 µM	8.78 µM	19 µM	9.11 µM	17 µM	7.31 µM	16.9 µM	8.62 µM	17.9 µM	7.33 µM	16.3	–	–
O=C1OCC2=C1C(c1cccc(C(F)(F)F)c1)c1cc3c(cc1N2CCO)OCO3 (stereo not drawn)	1.76	> 50	3.01	> 50 µM	1.61 µM	> 50	1.77 µM	> 50 µM	2.72 µM	> 50 µM	2.19 µM	> 50 µM	–	–	> 50 µM	> 50 µM	2.19 µM	> 50	–	–
c1ccc(CCCNc2nnnc3ccccc23)cc1	–	> 100	–	> 100 µM	–	> 100	–	> 100 µM	–	> 100 µM	–	> 100 µM	–	83 µM	–	> 100 µM	–	–	> 100 µM	–
COc1ccc(OC)c(/C=C/C(=O)C(C)(C)C)c1	–	39.1	–	–	–	42.6	–	–	–	40.4 µM	–	–	–	–	–	–	–	–	–	–
CCCCCCCCCCCCC/C=C1\C[C@H](O)COC1=O	–	32.9	–	–	–	32.3	–	–	–	36.4 µM	–	33.5 µM	–	–	–	28.4 µM	–	32.6	51.2 µM	–
O=C(O)c1c([N+](=O)[O-])cc(C(F)(F)F)cc1[N+](=O)[O-]	–	> 100	–	–	–	> 100	–	–	–	> 100 µM	–	> 100 µM	–	–	–	> 100 µM	–	> 100	> 100 µM	–
CN(C)CCN1C(=O)c2cccc3c(N)ccc(c23)C1=O	4.86	15	15.7	> 25 µM	–	–	16 µM	> 25 µM	15 µM	> 25 µM	15.1 µM	> 25 µM	17 µM	> 25 µM	11.2 µM	> 25 µM	6.76 µM	> 25	13.3 µM	4.59 µM
CCOc1ccccc1NC(=O)C(=O)C(C(=O)c1ccc2ccccc2c1)C1OC(=O)c2ccccc21 (stereo not drawn)	–	36.8	–	–	–	35.2	–	–	–	26.2 µM	–	46.1 µM	–	–	–	50.9 µM	–	29.1	–	–
COc1ccc2[nH]c3c(C)c4cc[n+](C)cc4c(C)c3c2c1	–	–	–	1.13 µM and 0.759 µM	1.01 µM and 1.13 µM	–	6.34 µM and 1.89 µM and 7.41 µM	53 µM and 133 µM	0.325 µM	3.3 µM [middle of 4 runs]	2.32 µM and 3.07 µM	–	0.88 µM and 0.257 µM and 1.03 µM	12.6 µM and 3.63 µM and 11.2 µM	6.27 µM and 5.41 µM	54.5 µM [middle of 4 runs]	13.6 µM and 15.6 µM	–	49.1 µM and > 209 µM	–
O=C1NC2(CCCC2)/C(=N\O)C12CCCC2	–	> 100	–	–	–	> 100	–	–	–	> 100 µM	–	> 100 µM	–	–	–	> 100 µM	–	> 100	> 100 µM	–
COc1ccc(N2CCN(CN3CCN(c4ccc(OC)cc4)C3)C2)cc1	> 100	> 100	> 100	> 100 µM	17 µM	> 100	> 100 µM	> 100 µM	48 µM	> 100 µM	> 100 µM	> 100 µM	> 100 µM	> 100 µM	> 100 µM	> 100 µM	> 100 µM	> 100	–	–
COc1ccc2nc3ccccc3c(NCCCCCN(CCCl)CCCl)c2c1	–	–	–	–	–	–	–	–	–	0.986 µM	–	1.35 µM	–	–	–	–	–	0.418	0.0101 µM	–
Clc1ccccc1C1N2CCCCC2[C@@H]2c3[nH]c4ccccc4c3CCN12 (stereo partly drawn)	–	–	–	–	–	> 100	–	–	–	45.6 µM	–	52.7 µM	–	–	–	42.2 µM	–	39	–	–
COC1=C(C)C(=O)C2=C(C1=O)C(CO)N1C(C#N)C3CC4C(C1C2N1CCOC41)N3C (stereo not drawn)	–	–	–	–	0.00217 µM and 0.0216 µM	–	–	1.37 µM	0.00173 µM and < 0.0134 µM	–	–	1.09 µM and 0.587 µM and 1.98 µM	0.00033 µM and < 0.0144 µM	–	0.00238 µM and 0.0198 µM	–	–	–	–	0.00159 µM and 0.00538 µM
